Source: US20170275270A1, “BENZYL SUBSTITUTED INDAZOLES” (Bayer Pharma Aktiengesellschaft, priority 2014, published 2017)
Counter-ions that a name gives are not always drawn. Like-named read-outs stand apart in the source and are kept apart here.

What was measured:
Bub1 = Bub1 (Homo sapiens, UniProt O43683); assay: Formation-Assay: phosphorylation status of histone 2A by inhibition of kinase activity of Bub1; format: cell-based; conditions: Biological Assay 4.1: H2A Formation IC50, co-treatment with Nocodazole 1 μg/ml, 16 h
Bub1, sequence (O43683 whole entry): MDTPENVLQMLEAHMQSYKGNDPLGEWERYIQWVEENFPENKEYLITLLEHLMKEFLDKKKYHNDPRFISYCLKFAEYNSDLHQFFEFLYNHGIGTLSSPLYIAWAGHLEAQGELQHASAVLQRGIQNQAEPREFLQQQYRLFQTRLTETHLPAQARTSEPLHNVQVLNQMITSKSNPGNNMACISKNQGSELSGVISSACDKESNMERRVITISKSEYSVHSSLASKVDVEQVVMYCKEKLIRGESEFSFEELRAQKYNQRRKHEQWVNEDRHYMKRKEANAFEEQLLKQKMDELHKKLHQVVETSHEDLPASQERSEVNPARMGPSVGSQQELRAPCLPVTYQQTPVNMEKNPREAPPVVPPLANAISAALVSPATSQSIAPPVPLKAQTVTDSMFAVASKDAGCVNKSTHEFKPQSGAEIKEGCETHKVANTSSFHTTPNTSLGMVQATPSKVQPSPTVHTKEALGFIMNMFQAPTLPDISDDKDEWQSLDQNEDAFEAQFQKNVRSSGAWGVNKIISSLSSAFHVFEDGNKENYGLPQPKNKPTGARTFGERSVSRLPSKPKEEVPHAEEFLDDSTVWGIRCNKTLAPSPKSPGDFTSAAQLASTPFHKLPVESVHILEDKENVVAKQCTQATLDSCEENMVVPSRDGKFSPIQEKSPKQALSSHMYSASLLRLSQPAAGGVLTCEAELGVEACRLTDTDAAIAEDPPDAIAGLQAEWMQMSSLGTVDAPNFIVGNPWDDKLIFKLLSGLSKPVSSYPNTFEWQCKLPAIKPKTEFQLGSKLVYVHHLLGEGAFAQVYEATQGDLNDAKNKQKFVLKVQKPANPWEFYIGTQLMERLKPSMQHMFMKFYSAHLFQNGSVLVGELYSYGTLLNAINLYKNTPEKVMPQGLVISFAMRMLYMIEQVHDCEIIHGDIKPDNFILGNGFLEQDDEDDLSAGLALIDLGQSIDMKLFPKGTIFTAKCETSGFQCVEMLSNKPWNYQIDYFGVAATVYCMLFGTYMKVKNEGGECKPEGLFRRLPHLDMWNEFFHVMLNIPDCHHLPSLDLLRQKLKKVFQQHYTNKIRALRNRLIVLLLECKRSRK
Summary of the method: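 Cells co-treated 16 h with Nocodazole (1 μg/ml) and compound (3 nM–10 μM), then fixed and immunostained for phospho-H2A, read by infrared imaging (800 nm) normalised to cell stain (700 nm). Nocodazole-only set as 100%, untreated cells as 0%.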

[1] = system: HeLa human cervical tumor cells; assay: Proliferation assay (HeLa+Paclitaxel); conditions: read-out: Biological Assay 3: HeLa + Paclitaxel IC50, 3 nM paclitaxel, crystal violet;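 note: compounds at 0.001-10 µM added 4 h after paclitaxel, 92 h exposure, absorbance normalized to zero-point plate (0%) and untreated cells (100%), IC50 from 4-parameter fit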
[2] = biological target: T1, catalytic domain of human Bub1 (amino acids 704-1085) (Homo sapiens, UniProt O43683); assay: Bub1 kinase assay (TR-FRET); format: biochemical
T1 construct: catalytic domain of human Bub1 (amino acids 704-1085); His6 (N); made in house; host or cells: Hi5 insect cells
T1 sequence (O43683 704-1085): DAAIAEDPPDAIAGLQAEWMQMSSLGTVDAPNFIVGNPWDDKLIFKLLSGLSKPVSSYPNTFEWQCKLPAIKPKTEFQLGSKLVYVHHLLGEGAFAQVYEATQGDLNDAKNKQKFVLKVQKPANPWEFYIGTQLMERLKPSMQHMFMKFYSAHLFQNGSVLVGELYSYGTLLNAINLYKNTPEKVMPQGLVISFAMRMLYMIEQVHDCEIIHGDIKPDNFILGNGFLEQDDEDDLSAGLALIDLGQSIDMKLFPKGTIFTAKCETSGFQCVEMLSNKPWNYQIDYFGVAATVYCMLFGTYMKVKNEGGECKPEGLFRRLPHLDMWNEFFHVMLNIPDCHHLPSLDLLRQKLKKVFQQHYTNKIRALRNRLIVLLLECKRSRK
Summary of the method: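 TR-FRET read-out (Eu-anti-mouse IgG/anti-phosphoserine antibody to streptavidin-XL665 on biotinylated peptide) after EDTA stop and 1 h complex formation at 22° C. Kinase reaction ran 60 min at 22° C with 1:3.4 serial dilutions from 2 mM DMSO stocks. IC50 from 4-parameter logistic fit of normalized inhibition.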

HeLa = assay: Proliferation assay (HeLa cell line); conditions: Homo sapiens, 96 h, read-out: Biological Assay 2: Proliferation assay (HeLa cell line) median IC50;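 note: crystal violet staining of cell number, scaled between a plate stained before dosing (0%) and cells left untreated (100%), compounds tested at 0.001-10 µM, IC50 via 4-parameter fit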
[3] = Biological Assay 1: Bub1 kinase assay median IC50, 10 μM ATP
[4] = 10 μM ATP, read-out: Biological Assay 1: Bub1 kinase assay median IC50

| Compound | IC50 (Bub1) | IC50 [1] | IC50 [2, 3] | IC50 (HeLa) | IC50 [2, 4] |
| --- | --- | --- | --- | --- | --- |
| CCOc1cc(F)c(Cn2nc(-c3nc(CC)cc(Nc4ccnc(NC(C)=O)c4)n3)c3ccccc32)c(F)c1 [Example 2-12-22, N-[4-({2-[1-(4-ethoxy-2,6-difluorobenzyl)-1H-indazol-3-yl]-6-ethylpyrimidin-4-yl}amino)pyridin-2-yl]acetamide] | 0.035 µM | 0.75 µM | 0.0093 µM | 1.2 µM |  |
| CCOc1cc(F)c(Cn2nc(-c3nc4c(c(Nc5cnnc(Cl)c5)n3)CCC4)c3ccccc32)c(F)c1 [Example 2-12-53, N-(6-chloropyridazin-4-yl)-2-[1-(4-ethoxy-2,6-difluorobenzyl)-1H-indazol-3-yl]-6,7-dihydro-5H-cyclopenta[d]pyrimidin-4-amine] | 0.14 µM | 0.51 µM |  | > 10 µM | 0.66 µM |
| CCOc1cc(F)c(Cn2nc(-c3ncc(CCN4CCCC(F)(F)C4)c(Nc4ccncc4)n3)c3ccccc32)c(F)c1 [Example 2-2-16, 5-[2-(3,3-difluoropiperidin-1-yl)ethyl]-2-[1-(4-ethoxy-2,6-difluorobenzyl)-1H-indazol-3-yl]-N-(pyridin-4-yl)pyrimidin-4-amine] | 1.9 µM | 0.23 µM | 0.015 µM | 6.9 µM |  |
| CCOc1cc(F)c(Cn2nc(-c3ncc(CCN)c(Nc4ccnc(C(F)F)c4)n3)c3ccccc32)c(F)c1 [Example 2-9-10, 5-(2-aminoethyl)-N-[2-(difluorometh-yl)pyridin-4-yl]-2-[1-(4-ethoxy-2,6-difluorobenzyl)-1H-indazol-3-yl]pyrimidin-4-amine, salt with hydrochloric acid] | 1.5 µM | 0.054 µM |  | 1 µM | 0.0071 µM |
| CCOc1cc(F)c(Cn2nc(-c3ncc(CCCCN4CCOCC4)c(Nc4ccncc4)n3)c3ccccc32)c(F)c1 [Example 2-2-12, 2-[1-(4-ethoxy-2,6-difluorobenzyl)-1H-indazol-3-yl]-5-[4-(morpholin-4-yl)butyl]-N-(pyridin-4-yl)pyrimidin-4-amine] | 0.8 µM | 0.17 µM | 0.012 µM | 2.3 µM |  |
| CCOc1cc(F)c(Cn2nc(-c3nc4c(c(Nc5ccnc(C)n5)n3)CC(C)(C)C4)c3ccccc32)c(F)c1 [Example 2-12-60, 2-[1-(4-ethoxy-2,6-difluorobenzyl)-1H-indazol-3-yl]-6,6-dimethyl-N-(2-methylpyrimidin-4-yl)-6,7-dihydro-5H-cyclopenta[d]pyrimidin-4-amine] | 0.0039 µM | 0.086 µM | 0.038 µM | > 10 µM |  |
| CCOc1cc(F)c(Cn2nc(-c3nc4c(c(Nc5ccnc(C)c5)n3)CCC4)c3ccccc32)c(F)c1 [Example 2-12-6, 2-[1-(4-ethoxy-2,6-difluorobenzyl)-1H-indazol-3-yl]-N-(2-methylpyridin-4-yl)-6,7-dihydro-5H-cyclopenta[d]pyrimidin-4-amine] | 0.006 µM | 0.33 µM |  | 1.2 µM | 0.011 µM |
| CCOc1cc(F)c(Cn2nc(-c3nc4c(c(Nc5cc(C)ncc5C)n3)CC(C)(C)C4)c3ccccc32)c(F)c1 [Example 2-12-59, N-(2,5-dimethylpyridin-4-yl)-2-[1-(4-ethoxy-2,6-difluorobenzyl)-1H-indazol-3-yl]-6,6-dimethyl-6,7-dihydro-5H-cyclopenta[d]pyrimidin-4-amine] | 0.12 µM | 0.062 µM |  | > 10 µM | 0.022 µM |
| CCOc1cc(F)c(Cn2nc(-c3nc(CN4CCOCC4)cc(Nc4ccnc(NC(C)=O)c4)n3)c3ccccc32)c(F)c1 [Example 2-12-14, N-[4-({2-[1-(4-ethoxy-2,6-difluorobenzyl)-1H-indazol-3-yl]-6-(morpholin-4-ylmethyl)pyrimidin-4-yl}amino)pyridin-2-yl]acetamide] | 0.011 µM | 0.1 µM |  | 1.8 µM | 0.0088 µM |
| CS(=O)(=O)CCCc1cnc(-c2nn(Cc3c(F)cc(OCCO)cc3F)c3ccccc23)nc1Nc1ccncc1 [Example 2-4-2, 2-{3,5-difluoro-4-[(3-{5-[3-(methylsulfonyl)propyl]-4-(pyridin-4-ylamino)pyrimidin-2-yl}-1H-indazol-1-yl)methyl]phenoxy}ethanol] | 0.07 µM | 3.9 µM | 0.015 µM | > 10 µM |  |
| CCOc1cc(F)c(Cn2nc(-c3ncc(CC4CNC4)c(Nc4ccnc(C(F)(F)F)c4)n3)c3ccccc32)c(F)c1 [Example 2-9-8] | 0.014 µM | 0.22 µM |  | 1.8 µM | 0.44 µM |
| CCOc1cc(F)c(Cn2nc(-c3nc4c(c(Nc5ccncc5)n3)CNC4)c3ccccc32)c(F)c1 [Example 2-9-14, 2-[1-(4-ethoxy-2,6-difluorobenzyl)-1H-indazol-3-yl]-N-(pyridin-4-yl)-6,7-dihydro-5H-pyrrolo[3,4-d]pyrimidin-4-amine, salt with hydrochloric acid] | 0.011 µM | 0.17 µM | 0.011 µM | 4.3 µM |  |
| CCOc1cc(F)c(Cn2nc(-c3nc4c(c(Nc5ccnc(C)c5)n3)CSC4)c3ccccc32)c(F)c1 [Example 2-19-4, 2-[1-(4-ethoxy-2,6-difluorobenzyl)-1H-indazol-3-yl]-N-(2-methylpyridin-4-yl)-5,7-dihydrothieno[3,4-d]pyrimidin-4-amine] | 0.045 µM | 0.13 µM |  | 1.2 µM | 0.068 µM |
| OCCOc1cc(F)c(Cn2nc(-c3nc(CN4CCOCC4)cc(Nc4ccnnc4)n3)c3ccccc32)c(F)c1 [Example 2-6-37, 2-[3,5-difluoro-4-({3-[4-(morpholin-4-ylmethyl)-6-(pyridazin-4-ylamino)pyrimidin-2-yl]-1H-indazol-1-yl}methyl)phenoxy]ethanol] | 0.26 µM | 2.3 µM |  | 9.5 µM | 0.04 µM |
| CCOc1cc(F)c(Cn2nc(-c3nc4c(c(Nc5ccnc(NC(C)=O)c5)n3)CCC4)c3ccccc32)c(F)c1 [Example 2-12-18, N-[4-({2-[1-(4-ethoxy-2,6-difluorobenzyl)-1H-indazol-3-yl]-6,7-dihydro-5H-cyclopenta[d]pyrimidin-4-yl}amino)pyridin-2-yl]acetamide] | 0.0041 µM | 0.25 µM |  | 2 µM | 0.0084 µM |
| CCOc1cc(F)c(Cn2nc(-c3nc(CN4CCOCC4)cc(Nc4ccnc(NC(=O)C5CC5)c4)n3)c3ccccc32)c(F)c1 [Example 2-19-11, N-[4-({2-[1-(4-ethoxy-2,6-difluorobenzyl)-1H-indazol-3-yl]-6-(morpholin-4-ylmethyl)pyrimidin-4-yl}amino)pyridin-2-yl]cyclopropanecarboxamide] | 0.18 µM | 0.13 µM |  | 1.8 µM | 0.0091 µM |
| Cc1cc(Nc2nc(-c3nn(Cc4c(F)cc(OCCO)cc4F)c4ccccc34)nc3c2CCC3)c(F)cn1 [Example 2-6-21, 2-{3,5-difluoro-4-[(3-{4-[(5-fluoro-2-methylpyridin-4-yl)amino]-6,7-dihydro-5H-cyclopenta[d]pyrimidin-2-yl}-1H-indazol-1-yl)methyl]phenoxy}ethanol] | 0.084 µM | 0.17 µM | 0.011 µM | 3.4 µM |  |
| CCOc1cc(F)c(Cn2nc(-c3nc4c(c(Nc5ccnc(C(F)F)c5)n3)CCC4)c3ccccc32)c(F)c1 [Example 2-19-8, N-[2-(difluoromethyl)pyridin-4-yl]-2-[1-(4-ethoxy-2,6-difluorobenzyl)-1H-indazol-3-yl]-6,7-dihydro-5H-cyclopenta[d]pyrimidin-4-amine] | 2.5 µM | 0.44 µM |  | > 10 µM | 0.0081 µM |
| CCOc1cc(F)c(Cn2nc(-c3nc(CN4CCOCC4)cc(Nc4ccnc(C)c4)n3)c3ccccc32)c(F)c1 [Example 2-19-9, 2-[1-(4-ethoxy-2,6-difluorobenzyl)-1H-indazol-3-yl]-N-(2-methylpyridin-4-yl)-6-(morpholin-4-ylmethyl)pyrimidin-4-amine] | 0.018 µM | 0.075 µM |  | 1.3 µM | 0.023 µM |
